This is an account of results in patent US20030170249A1, “Vaccines directed to cancer-associated carbohydrate antigens” (priority 1999, published 2003).

For series [1], the system named is B16 melanoma cells of clones F-1 or F-10. The series is described as follows: Active immunization with GM3 lactone, B16 melanoma development. It is filed as in vivo. To be noted: immunized BALB/c mice. The protocol: Ten BALB/c mice were immunized with native GM3 or GM3 lactone coated on acid-treated Salmonella minnesota. Immunization was carried out by intravenous injection of 200 μl of the GM3 or GM3 lactone preparation once per week for 4 weeks. Subsequently, 1.0×10^5 B16 melanoma cells of clones F-1 or F-10, were subcutaneously injected into the back of the mice and tumor growth was observed after 20 days. As controls, other glycolipids, such as paragloboside coated on acid-treated Salmonella minnesota, and Salmonella minnesota alone, were used in the same amounts as discussed above.
In the table, the numbers indicate the number of animal which died over the total number of animals immunized.

The conditions of series [2]: cited from earlier work.
Another series deals with V alpha 14 TCR. To be noted: cited from earlier work.
For the next series, the system named is V alpha 14 NKT cells. To be noted: cited from earlier work.
The test system of series [3] is B16 melanoma and mouse colonic carcinoma Colon 26. Particulars: mice bearing various tumors; cited from earlier work.
In the next series the test system is MHC Class I Kb / Db. Particulars: peptides binding MHC Class I Kb; cited from earlier work.
For a further series, the system named is antibody to Le^y. Particulars: cited from earlier work.
The subject of series [4] is TA3Ha cells. As to the kind of experiment: Tumor growth suppression by vaccination with Tn antigen (A-OSM or A-BSM), Ribi adjuvant and cyclophosphamide. It is filed as in vivo, mouse. Particulars: CP only; 700 TA3Ha cells i.p. The protocol: Tumor growth suppression was tested using A-OSM or A-BSM with Ribi adjuvant, which is essentially composed of trehalose dimycolate and monophosphoryl Lipid A, the effective component of mycobacteria known to stimulate immune response of T as well as B cells (Ribi et al., Clin. Immunol. Newsletter 6:33-36, 1985). A-OSM and A-BSM were produced by treatment with neuraminidase as described above. […] For example, 100 μg of A-OSM or A-BSM were mixed with 500 μg of complete Ribi adjuvant and injected subcutaneously at day −7 (i.e., 7 days before tumor cell inoculation). On day 0, 700 TA3Ha cells were injected intraperitoneally. On day 1, CP (75 mg/kg) was injected intraperitoneally. On days 2, 5, 12, and 19, 100 μg antigen/500 μg Ribi adjuvant complex was injected subcutaneously. Another experimental group was injected with CP-Ribi on days 2, 5, 12, and 19, respectively.

In series [5] the test system is TA3Ha cells. As to the kind of experiment: Synthetic Tn-KLH/Ribi tumor vaccine, TA3Ha challenge i.p. It counts as in vivo, mouse. Particulars: control groups; TA3Ha i.p. day 0, CP day 1.
Procedure: Mice were preimmunized at day −7 with 50 μg of synthetic Tn/Ribi, s.c. and were challenged with TA3Ha cells, i.p. at day 0.
Mice were immunized with 30 μg of monomeric Tn-KLH/Ribi or dimeric Tn-KLH/Ribi on days −7, 2, 5, 12 and 19.

Read-outs that look alike come from different tables or passages of the source. Where no end group is shown, it is not given here.

Take GM3 lactone: the tumor growth reduced result in series [1] is listed as “reduced”. Moreover, the “stability of the structure” value was “relatively stable” in series [2] (acidic to neutral pH) and “unstable” in series [2] (alkaline pH).

Turning to `CCCCCCCCCCCCCCCCCCCCCCCCCC(=O)N[C@@H](CO[C@H]1O[C@H](CO)[C@H](O)[C@H](O)[C@H]1O)[C@H](O)[C@H](O)CCCCCCCCCCCCCC` [alpha-GalCer], in the series on V alpha 14 TCR, the “binding to V alpha 14 TCR” value was “bind V alpha 14 TCR”. Further, the “proliferation of V alpha 14 NKT cells” value in the series on V alpha 14 NKT cells is “stimulate proliferation”. Besides, in [3], the “tumor growth and metastasis” value is “abrogated tumor growth and metastasis”.

With GM3, the tumor growth reduced entry in series [1] is listed as “not”.

In the case of “Di-Gal (Galα1-4Gal) oligosaccharide linked to N or P of FAPGNYPAL: di-Gal linked to MHC Class I Kb binding peptide FAPGNYPAL (also: di-Gal (Galα1-4Gal) linked to N or P)”, the “cytotoxic T cell response to the oligosaccharide residue” value in the series on MHC Class I Kb / Db is recorded as “elicited a cytotoxic T cell response”.

Regarding “APWLYGPA [peptide selected from phage display library with antibody to Le^y]”, the “binding of the antibody to Le^y” value in the series with antibody to Le^y is “inhibited binding”.

Take “Di-Gal (Galα1-4Gal) oligosaccharide linked to V or Q of RGYVYQGL: di-Gal linked to MHC Class I Kb binding peptide RGYVYQGL (also: di-Gal (Galα1-4Gal) linked to V or Q)”: the “cytotoxic T cell response to the oligosaccharide residue” value in the series on MHC Class I Kb / Db is “elicited a cytotoxic T cell response”.

Regarding `O=P1(N(CCCl)CCCl)NCCCO1` (stereo not shown) [CP, Cyclophosphamide], in the series with TA3Ha cells [4], the “most animals had died by” value was 20 to 30 days and the tumor growth suppression entry is recorded as “some tumor growth suppression”. In addition, the “survival of tumor challenge” value in the series with TA3Ha cells [5] is on record as “did not survive tumor challenge”.
